Converted amounts (≈) assume the structure as drawn. The source made the active and inactive calls. The calls are words filed in the database; no cut-off is given here.
Legend:
Format in all cases: functional
Staphylococcus aureus [1] = assay: Antibacterial activity against methicillin resistant Staphylococcus aureus MRSA090 at 25 ug/ml after 24 hrs by agar well diffusion method; conditions: MRSA090, 24 h, read-out: DIZ
Staphylococcus aureus [2] = assay: Antibacterial activity against methicillin resistant Staphylococcus aureus MRSA090 at 50 ug/ml after 24 hrs by agar well diffusion method; conditions: MRSA090, 24 h, read-out: DIZ
Staphylococcus aureus [3] = assay: Antibacterial activity against methicillin resistant Staphylococcus aureus MRSA090 at 75 ug/ml after 24 hrs by agar well diffusion method; conditions: MRSA090, 24 h, read-out: DIZ
Staphylococcus aureus [4] = assay: Antibacterial activity against methicillin resistant Staphylococcus aureus MRSA090 at 100 ug/ml after 24 hrs by agar well diffusion method; conditions: MRSA090, 24 h, read-out: DIZ
Klebsiella pneumoniae [5] = assay: Antibacterial activity against Klebsiella pneumoniae incubated for overnight by microdilution method
Staphylococcus aureus [6] = assay: Antibacterial activity against Staphylococcus aureus incubated for overnight by microdilution method
Bacillus subtilis [7] = assay: Antibacterial activity against Bacillus subtilis incubated for overnight by microdilution method
Escherichia coli [8] = assay: Antibacterial activity against Escherichia coli incubated for overnight by microdilution method
Staphylococcus aureus [9] = assay: Antibacterial activity against methicillin resistant Staphylococcus aureus MRSA090 incubated for overnight by microdilution method
Staphylococcus aureus [10] = assay: Antibacterial activity against Staphylococcus aureus at 25 ug/ml after 24 hrs by agar well diffusion method; conditions: read-out: DIZ
Staphylococcus aureus [11] = assay: Antibacterial activity against Staphylococcus aureus at 50 ug/ml after 24 hrs by agar well diffusion method; conditions: read-out: DIZ
Staphylococcus aureus [12] = assay: Antibacterial activity against Staphylococcus aureus at 75 ug/ml after 24 hrs by agar well diffusion method; conditions: read-out: DIZ
Staphylococcus aureus [13] = assay: Antibacterial activity against Staphylococcus aureus at 100 ug/ml after 24 hrs by agar well diffusion method; conditions: read-out: DIZ
Bacillus subtilis [14] = assay: Antibacterial activity against Bacillus subtilis at 25 ug/ml after 24 hrs by agar well diffusion method; conditions: read-out: DIZ
Bacillus subtilis [15] = assay: Antibacterial activity against Bacillus subtilis at 50 ug/ml after 24 hrs by agar well diffusion method; conditions: read-out: DIZ
Bacillus subtilis [16] = assay: Antibacterial activity against Bacillus subtilis at 75 ug/ml after 24 hrs by agar well diffusion method; conditions: read-out: DIZ
Bacillus subtilis [17] = assay: Antibacterial activity against Bacillus subtilis at 100 ug/ml after 24 hrs by agar well diffusion method; conditions: read-out: DIZ
Escherichia coli [18] = assay: Antibacterial activity against Escherichia coli at 25 ug/ml after 24 hrs by agar well diffusion method; conditions: read-out: DIZ
Escherichia coli [19] = assay: Antibacterial activity against Escherichia coli at 50 ug/ml after 24 hrs by agar well diffusion method; conditions: read-out: DIZ
Escherichia coli [20] = assay: Antibacterial activity against Escherichia coli at 75 ug/ml after 24 hrs by agar well diffusion method; conditions: read-out: DIZ
Escherichia coli [21] = assay: Antibacterial activity against Escherichia coli at 100 ug/ml after 24 hrs by agar well diffusion method; conditions: read-out: DIZ
Klebsiella pneumoniae [22] = assay: Antibacterial activity against Klebsiella pneumoniae at 25 ug/ml after 24 hrs by agar well diffusion method; conditions: read-out: DIZ
Klebsiella pneumoniae [23] = assay: Antibacterial activity against Klebsiella pneumoniae at 50 ug/ml after 24 hrs by agar well diffusion method; conditions: read-out: DIZ
Klebsiella pneumoniae [24] = assay: Antibacterial activity against Klebsiella pneumoniae at 75 ug/ml after 24 hrs by agar well diffusion method; conditions: read-out: DIZ
Klebsiella pneumoniae [25] = assay: Antibacterial activity against Klebsiella pneumoniae at 100 ug/ml after 24 hrs by agar well diffusion method; conditions: read-out: DIZ
Aspergillus niger [26] = assay: Antifungal activity against Aspergillus niger at 25 ug/ml after 48 hrs by agar well diffusion method
Aspergillus niger [27] = assay: Antifungal activity against Aspergillus niger at 50 ug/ml after 48 hrs by agar well diffusion method
Aspergillus niger [28] = assay: Antifungal activity against Aspergillus niger at 75 ug/ml after 48 hrs by agar well diffusion method
Aspergillus niger [29] = assay: Antifungal activity against Aspergillus niger at 100 ug/ml after 48 hrs by agar well diffusion method
Fusarium verticillioides [30] = assay: Antifungal activity against Fusarium moniliforme at 25 ug/ml after 48 hrs by agar well diffusion method
Fusarium verticillioides [31] = assay: Antifungal activity against Fusarium moniliforme at 50 ug/ml after 48 hrs by agar well diffusion method
Fusarium verticillioides [32] = assay: Antifungal activity against Fusarium moniliforme at 75 ug/ml after 48 hrs by agar well diffusion method
Fusarium verticillioides [33] = assay: Antifungal activity against Fusarium moniliforme at 100 ug/ml after 48 hrs by agar well diffusion method
Fusarium oxysporum [34] = assay: Antifungal activity against Fusarium oxysporum at 25 ug/ml after 48 hrs by agar well diffusion method
Fusarium oxysporum [35] = assay: Antifungal activity against Fusarium oxysporum at 50 ug/ml after 48 hrs by agar well diffusion method
Fusarium oxysporum [36] = assay: Antifungal activity against Fusarium oxysporum at 75 ug/ml after 48 hrs by agar well diffusion method
Fusarium oxysporum [37] = assay: Antifungal activity against Fusarium oxysporum at 100 ug/ml after 48 hrs by agar well diffusion method

## CO[C@H]1/C=C/O[C@@]2(C)Oc3c(C)c(O)c4c(O)c(c(/C=N/N5CCN(C)CC5)c(O)c4c3C2=O)NC(=O)/C(C)=C\C=C\[C@H](C)[C@H](O)[C@@H](C)[C@@H](O)[C@@H](C)[C@H](OC(C)=O)[C@@H]1C [RIFAMPIN]
Staphylococcus aureus [1]
  zone of inhibition at 25 µg/mL: 23 mm
Staphylococcus aureus [2]
  zone of inhibition at 50 µg/mL: 27 mm
Staphylococcus aureus [3]
  zone of inhibition at 75 µg/mL: 30 mm
Staphylococcus aureus [4]
  zone of inhibition at 100 µg/mL: 33 mm
Klebsiella pneumoniae [5]
  MIC: 22 µg/mL (≈ 26.7 µM)
Staphylococcus aureus [6]
  MIC: 21 µg/mL (≈ 25.5 µM)
Bacillus subtilis [7]
  MIC: 21 µg/mL (≈ 25.5 µM)
Escherichia coli [8]
  MIC: 22 µg/mL (≈ 26.7 µM)
Staphylococcus aureus [9]
  MIC: 22 µg/mL (≈ 26.7 µM)

## Cc1cccc2nc(N/N=C/c3ccc(O)cc3)sc12
Staphylococcus aureus [10]
  zone of inhibition at 25 µg/mL: 10 mm
Staphylococcus aureus [11]
  zone of inhibition at 50 µg/mL: 16 mm
Staphylococcus aureus [12]
  zone of inhibition at 75 µg/mL: 20 mm
Staphylococcus aureus [13]
  zone of inhibition at 100 µg/mL: 23 mm
Bacillus subtilis [14]
  zone of inhibition at 25 µg/mL: 11 mm
Bacillus subtilis [15]
  zone of inhibition at 50 µg/mL: 14 mm
Bacillus subtilis [16]
  zone of inhibition at 75 µg/mL: 18 mm
Bacillus subtilis [17]
  zone of inhibition at 100 µg/mL: 21 mm
Escherichia coli [18]
  zone of inhibition at 25 µg/mL: 17 mm
Escherichia coli [19]
  zone of inhibition at 50 µg/mL: 19 mm
Escherichia coli [20]
  zone of inhibition at 75 µg/mL: 22 mm
Escherichia coli [21]
  zone of inhibition at 100 µg/mL: 25 mm
Klebsiella pneumoniae [22]
  zone of inhibition at 25 µg/mL: 14 mm
Klebsiella pneumoniae [23]
  zone of inhibition at 50 µg/mL: 17 mm
Klebsiella pneumoniae [24]
  zone of inhibition at 75 µg/mL: 22 mm
Klebsiella pneumoniae [25]
  zone of inhibition at 100 µg/mL: 26 mm
Staphylococcus aureus [1]
  zone of inhibition at 25 µg/mL: 14 mm
Staphylococcus aureus [2]
  zone of inhibition at 50 µg/mL: 17 mm
Staphylococcus aureus [3]
  zone of inhibition at 75 µg/mL: 21 mm
Staphylococcus aureus [4]
  zone of inhibition at 100 µg/mL: 24 mm
Aspergillus niger [26]
  diameter of the inhibition zone (DIZ): inactive
Aspergillus niger [27]
  diameter of the inhibition zone (DIZ): inactive
Aspergillus niger [28]
  diameter of the inhibition zone (DIZ): inactive
Aspergillus niger [29]
  diameter of the inhibition zone (DIZ): inactive
Fusarium verticillioides [30]; read-out: DIZ
  zone of inhibition at 25 µg/mL: 8 mm
Fusarium verticillioides [31]; read-out: DIZ
  zone of inhibition at 50 µg/mL: 10 mm
Fusarium verticillioides [32]; read-out: DIZ
  zone of inhibition at 75 µg/mL: 13 mm
Fusarium verticillioides [33]; read-out: DIZ
  zone of inhibition at 100 µg/mL: 17 mm
Fusarium oxysporum [34]
  diameter of the inhibition zone (DIZ): inactive
Fusarium oxysporum [35]
  diameter of the inhibition zone (DIZ): inactive
Fusarium oxysporum [36]
  diameter of the inhibition zone (DIZ): inactive
Fusarium oxysporum [37]
  diameter of the inhibition zone (DIZ): inactive
Staphylococcus aureus [6]
  MIC: 28 µg/mL (≈ 98.8 µM)
Bacillus subtilis [7]
  MIC: 26 µg/mL (≈ 91.8 µM)
Escherichia coli [8]
  MIC: 25 µg/mL (≈ 88.2 µM)
Staphylococcus aureus [9]
  MIC: 30 µg/mL (≈ 106 µM)

## COc1ccc(/C=N/Nc2nc3cccc(C)c3s2)cc1
Staphylococcus aureus [10]
  zone of inhibition at 25 µg/mL: 12 mm
Staphylococcus aureus [11]
  zone of inhibition at 50 µg/mL: 14 mm
Staphylococcus aureus [12]
  zone of inhibition at 75 µg/mL: 19 mm
Staphylococcus aureus [13]
  zone of inhibition at 100 µg/mL: 24 mm
Bacillus subtilis [14]
  zone of inhibition at 25 µg/mL: 13 mm
Bacillus subtilis [15]
  zone of inhibition at 50 µg/mL: 18 mm
Bacillus subtilis [16]
  zone of inhibition at 75 µg/mL: 20 mm
Bacillus subtilis [17]
  zone of inhibition at 100 µg/mL: 26 mm
Escherichia coli [18]
  zone of inhibition at 25 µg/mL: 10 mm
Escherichia coli [19]
  zone of inhibition at 50 µg/mL: 12 mm
Escherichia coli [20]
  zone of inhibition at 75 µg/mL: 15 mm
Escherichia coli [21]
  zone of inhibition at 100 µg/mL: 10 mm
Klebsiella pneumoniae [22]
  zone of inhibition at 25 µg/mL: 14 mm
Klebsiella pneumoniae [23]
  zone of inhibition at 50 µg/mL: 16 mm
Klebsiella pneumoniae [24]
  zone of inhibition at 75 µg/mL: 20 mm
Klebsiella pneumoniae [25]
  zone of inhibition at 100 µg/mL: 22 mm
Staphylococcus aureus [1]
  zone of inhibition at 25 µg/mL: 10 mm
Staphylococcus aureus [2]
  zone of inhibition at 50 µg/mL: 13 mm
Staphylococcus aureus [3]
  zone of inhibition at 75 µg/mL: 16 mm
Staphylococcus aureus [4]
  zone of inhibition at 100 µg/mL: 21 mm
Aspergillus niger [26]; read-out: DIZ
  zone of inhibition at 25 µg/mL: 8 mm
Aspergillus niger [27]; read-out: DIZ
  zone of inhibition at 50 µg/mL: 11 mm
Aspergillus niger [28]; read-out: DIZ
  zone of inhibition at 75 µg/mL: 14 mm
Aspergillus niger [29]; read-out: DIZ
  zone of inhibition at 100 µg/mL: 16 mm
Fusarium verticillioides [30]
  diameter of the inhibition zone (DIZ): inactive
Fusarium verticillioides [31]
  diameter of the inhibition zone (DIZ): inactive
Fusarium verticillioides [32]
  diameter of the inhibition zone (DIZ): inactive
Fusarium verticillioides [33]
  diameter of the inhibition zone (DIZ): inactive
Fusarium oxysporum [34]
  diameter of the inhibition zone (DIZ): inactive
Fusarium oxysporum [35]
  diameter of the inhibition zone (DIZ): inactive
Fusarium oxysporum [36]
  diameter of the inhibition zone (DIZ): inactive
Fusarium oxysporum [37]
  diameter of the inhibition zone (DIZ): inactive
Staphylococcus aureus [6]
  MIC: 30 µg/mL (≈ 101 µM)
Bacillus subtilis [7]
  MIC: 28 µg/mL (≈ 94.2 µM)
Escherichia coli [8]
  MIC: 27 µg/mL (≈ 90.8 µM)
Staphylococcus aureus [9]
  MIC: 32 µg/mL (≈ 108 µM)

Source: ChEMBL document CHEMBL4020788, “Synthesis, SAR and molecular docking studies of benzo[d]thiazole-hydrazones as potential antibacterial and antifungal agents” (2017)
